Measured values: patent publication US20120122860A1, “SOLID FORMS OF SULFONAMIDES AND AMINO ACIDS” (Plexxikon, Inc., priority 2009, published 2012)

Assays:
[1] = target: C-Raf (Homo sapiens, UniProt P04049); experiment: Kinase activity assay, C-Raf
[2] = target: Kdr (Homo sapiens, UniProt P35968); experiment: Kinase activity assay, Kdr
[3] = target: T1, A-Raf (Homo sapiens, UniProt P10398); experiment: Kinase activity assay, A-Raf
T1 sequence (P10398 1-606): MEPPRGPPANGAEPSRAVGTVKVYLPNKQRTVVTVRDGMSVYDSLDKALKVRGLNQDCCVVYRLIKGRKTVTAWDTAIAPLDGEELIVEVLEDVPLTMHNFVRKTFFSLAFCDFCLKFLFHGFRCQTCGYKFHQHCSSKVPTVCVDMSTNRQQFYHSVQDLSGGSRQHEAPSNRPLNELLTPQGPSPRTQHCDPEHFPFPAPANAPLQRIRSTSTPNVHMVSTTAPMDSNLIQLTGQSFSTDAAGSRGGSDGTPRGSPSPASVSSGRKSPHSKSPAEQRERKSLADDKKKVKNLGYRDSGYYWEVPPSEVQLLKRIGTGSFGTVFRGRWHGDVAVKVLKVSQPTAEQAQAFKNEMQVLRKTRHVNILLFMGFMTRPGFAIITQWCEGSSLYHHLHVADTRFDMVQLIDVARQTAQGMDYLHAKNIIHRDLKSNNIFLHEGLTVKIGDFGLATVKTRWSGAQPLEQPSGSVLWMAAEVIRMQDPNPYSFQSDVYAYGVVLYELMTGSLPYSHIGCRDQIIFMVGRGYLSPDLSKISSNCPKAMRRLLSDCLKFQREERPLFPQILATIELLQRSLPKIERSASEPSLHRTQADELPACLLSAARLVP

[4] = target: Src (Homo sapiens, UniProt P12931); experiment: Kinase activity assay, Src
Sequence of Src (P12931 whole entry): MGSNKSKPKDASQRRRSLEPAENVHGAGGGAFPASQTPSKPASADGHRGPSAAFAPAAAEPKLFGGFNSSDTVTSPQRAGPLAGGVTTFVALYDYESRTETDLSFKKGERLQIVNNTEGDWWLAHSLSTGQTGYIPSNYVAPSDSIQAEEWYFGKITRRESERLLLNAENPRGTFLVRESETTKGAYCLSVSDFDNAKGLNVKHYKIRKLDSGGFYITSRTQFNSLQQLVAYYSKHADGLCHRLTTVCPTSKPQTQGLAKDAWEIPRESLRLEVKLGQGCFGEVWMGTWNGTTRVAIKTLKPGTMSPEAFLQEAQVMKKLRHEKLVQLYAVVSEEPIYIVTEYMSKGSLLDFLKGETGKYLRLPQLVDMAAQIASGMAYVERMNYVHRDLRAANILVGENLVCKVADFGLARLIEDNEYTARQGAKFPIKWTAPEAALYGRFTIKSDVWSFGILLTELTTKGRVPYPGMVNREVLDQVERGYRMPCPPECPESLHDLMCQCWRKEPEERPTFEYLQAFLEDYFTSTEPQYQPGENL

[5] = target: B-Raf V600E (Homo sapiens, UniProt P15056, V600E); experiment: Kinase activity assay, B-Raf V600E; assay type: biochemical; details: read-out: activity toward kinase B-Raf V600E, IC50
Sequence of B-Raf V600E (P15056 whole entry V600E): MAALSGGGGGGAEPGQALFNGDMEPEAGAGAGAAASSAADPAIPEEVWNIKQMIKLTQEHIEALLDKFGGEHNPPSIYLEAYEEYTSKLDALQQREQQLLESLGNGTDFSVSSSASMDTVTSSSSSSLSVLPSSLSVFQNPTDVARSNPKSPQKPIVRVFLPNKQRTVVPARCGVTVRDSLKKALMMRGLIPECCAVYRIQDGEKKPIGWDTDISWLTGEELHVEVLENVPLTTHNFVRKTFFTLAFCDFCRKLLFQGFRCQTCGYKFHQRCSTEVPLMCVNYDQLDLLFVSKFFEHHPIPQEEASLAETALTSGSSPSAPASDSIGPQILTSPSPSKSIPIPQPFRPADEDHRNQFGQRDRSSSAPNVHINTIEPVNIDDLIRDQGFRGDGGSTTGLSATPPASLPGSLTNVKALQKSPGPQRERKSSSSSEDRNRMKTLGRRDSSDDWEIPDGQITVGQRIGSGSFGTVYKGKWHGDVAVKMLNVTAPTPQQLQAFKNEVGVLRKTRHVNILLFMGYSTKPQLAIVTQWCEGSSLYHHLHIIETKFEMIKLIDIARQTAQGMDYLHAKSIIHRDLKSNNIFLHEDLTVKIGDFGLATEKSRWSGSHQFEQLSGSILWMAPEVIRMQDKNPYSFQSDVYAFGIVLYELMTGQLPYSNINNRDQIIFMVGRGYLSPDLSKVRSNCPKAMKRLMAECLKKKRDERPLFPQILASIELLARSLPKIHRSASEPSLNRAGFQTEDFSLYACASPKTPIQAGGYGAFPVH

[6] = target: B-Raf (Homo sapiens, UniProt P15056); experiment: Kinase activity assay, B-Raf; assay type: biochemical; details: read-out: activity toward kinase B-Raf, IC50
Sequence of B-Raf (P15056 whole entry): as the sequence (P15056 whole entry V600E) above, with E600V counted along it

[7] = target: MAP4K4 (Homo sapiens, UniProt O95819); experiment: Kinase activity assay, MAP4K4
Sequence of MAP4K4 (O95819 whole entry): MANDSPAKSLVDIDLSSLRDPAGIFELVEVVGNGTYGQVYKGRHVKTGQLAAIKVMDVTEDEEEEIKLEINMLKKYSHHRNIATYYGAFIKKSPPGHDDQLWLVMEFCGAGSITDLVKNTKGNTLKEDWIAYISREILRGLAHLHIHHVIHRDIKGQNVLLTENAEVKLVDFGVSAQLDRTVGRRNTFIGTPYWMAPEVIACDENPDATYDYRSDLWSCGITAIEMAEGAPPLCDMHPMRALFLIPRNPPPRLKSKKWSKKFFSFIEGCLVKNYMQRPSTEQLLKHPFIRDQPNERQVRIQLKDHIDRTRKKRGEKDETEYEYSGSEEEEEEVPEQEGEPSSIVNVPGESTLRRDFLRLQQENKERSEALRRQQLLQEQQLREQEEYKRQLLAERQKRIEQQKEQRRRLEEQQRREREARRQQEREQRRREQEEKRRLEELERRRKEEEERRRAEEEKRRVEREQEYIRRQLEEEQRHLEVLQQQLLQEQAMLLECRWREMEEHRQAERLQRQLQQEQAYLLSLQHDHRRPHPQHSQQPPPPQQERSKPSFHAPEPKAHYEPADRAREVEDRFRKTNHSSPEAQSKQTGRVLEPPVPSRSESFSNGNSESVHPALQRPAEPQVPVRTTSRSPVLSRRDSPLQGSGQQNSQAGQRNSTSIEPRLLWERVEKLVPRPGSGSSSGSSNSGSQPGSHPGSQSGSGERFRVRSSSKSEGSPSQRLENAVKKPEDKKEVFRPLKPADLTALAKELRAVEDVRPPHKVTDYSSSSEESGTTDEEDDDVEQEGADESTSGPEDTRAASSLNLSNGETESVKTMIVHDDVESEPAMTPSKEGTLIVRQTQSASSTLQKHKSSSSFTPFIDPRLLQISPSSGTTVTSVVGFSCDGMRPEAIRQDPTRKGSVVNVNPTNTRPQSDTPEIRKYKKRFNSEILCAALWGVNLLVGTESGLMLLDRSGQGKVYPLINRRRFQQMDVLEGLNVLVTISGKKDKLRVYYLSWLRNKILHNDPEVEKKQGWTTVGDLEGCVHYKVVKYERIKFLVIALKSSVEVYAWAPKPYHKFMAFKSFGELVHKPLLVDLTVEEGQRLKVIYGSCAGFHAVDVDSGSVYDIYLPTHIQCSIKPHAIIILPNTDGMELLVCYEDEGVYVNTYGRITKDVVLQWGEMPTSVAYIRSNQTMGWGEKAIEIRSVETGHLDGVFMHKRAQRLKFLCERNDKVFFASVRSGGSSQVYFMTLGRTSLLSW

[8] = target: Kit (Homo sapiens, UniProt P10721); experiment: Kinase activity assay, Kit

Measured: IC50

Sequence of C-Raf (P04049 whole entry): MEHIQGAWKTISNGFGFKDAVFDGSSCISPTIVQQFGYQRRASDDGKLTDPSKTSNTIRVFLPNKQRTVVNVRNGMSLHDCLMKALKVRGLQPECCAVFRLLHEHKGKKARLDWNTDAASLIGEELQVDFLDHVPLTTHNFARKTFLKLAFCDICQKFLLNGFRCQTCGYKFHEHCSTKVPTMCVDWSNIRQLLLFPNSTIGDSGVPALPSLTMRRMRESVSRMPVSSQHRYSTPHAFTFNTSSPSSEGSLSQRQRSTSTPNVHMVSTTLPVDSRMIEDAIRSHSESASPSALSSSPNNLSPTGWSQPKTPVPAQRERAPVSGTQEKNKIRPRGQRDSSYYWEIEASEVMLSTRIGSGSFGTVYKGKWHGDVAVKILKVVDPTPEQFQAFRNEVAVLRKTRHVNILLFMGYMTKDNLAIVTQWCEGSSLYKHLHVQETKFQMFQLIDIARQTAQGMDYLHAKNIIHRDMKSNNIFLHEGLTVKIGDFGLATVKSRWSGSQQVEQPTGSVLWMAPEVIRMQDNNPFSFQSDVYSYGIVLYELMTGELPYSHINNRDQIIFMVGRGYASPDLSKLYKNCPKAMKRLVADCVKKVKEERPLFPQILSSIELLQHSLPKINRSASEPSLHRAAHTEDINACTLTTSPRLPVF
Sequence of Kdr (P35968 20-1356): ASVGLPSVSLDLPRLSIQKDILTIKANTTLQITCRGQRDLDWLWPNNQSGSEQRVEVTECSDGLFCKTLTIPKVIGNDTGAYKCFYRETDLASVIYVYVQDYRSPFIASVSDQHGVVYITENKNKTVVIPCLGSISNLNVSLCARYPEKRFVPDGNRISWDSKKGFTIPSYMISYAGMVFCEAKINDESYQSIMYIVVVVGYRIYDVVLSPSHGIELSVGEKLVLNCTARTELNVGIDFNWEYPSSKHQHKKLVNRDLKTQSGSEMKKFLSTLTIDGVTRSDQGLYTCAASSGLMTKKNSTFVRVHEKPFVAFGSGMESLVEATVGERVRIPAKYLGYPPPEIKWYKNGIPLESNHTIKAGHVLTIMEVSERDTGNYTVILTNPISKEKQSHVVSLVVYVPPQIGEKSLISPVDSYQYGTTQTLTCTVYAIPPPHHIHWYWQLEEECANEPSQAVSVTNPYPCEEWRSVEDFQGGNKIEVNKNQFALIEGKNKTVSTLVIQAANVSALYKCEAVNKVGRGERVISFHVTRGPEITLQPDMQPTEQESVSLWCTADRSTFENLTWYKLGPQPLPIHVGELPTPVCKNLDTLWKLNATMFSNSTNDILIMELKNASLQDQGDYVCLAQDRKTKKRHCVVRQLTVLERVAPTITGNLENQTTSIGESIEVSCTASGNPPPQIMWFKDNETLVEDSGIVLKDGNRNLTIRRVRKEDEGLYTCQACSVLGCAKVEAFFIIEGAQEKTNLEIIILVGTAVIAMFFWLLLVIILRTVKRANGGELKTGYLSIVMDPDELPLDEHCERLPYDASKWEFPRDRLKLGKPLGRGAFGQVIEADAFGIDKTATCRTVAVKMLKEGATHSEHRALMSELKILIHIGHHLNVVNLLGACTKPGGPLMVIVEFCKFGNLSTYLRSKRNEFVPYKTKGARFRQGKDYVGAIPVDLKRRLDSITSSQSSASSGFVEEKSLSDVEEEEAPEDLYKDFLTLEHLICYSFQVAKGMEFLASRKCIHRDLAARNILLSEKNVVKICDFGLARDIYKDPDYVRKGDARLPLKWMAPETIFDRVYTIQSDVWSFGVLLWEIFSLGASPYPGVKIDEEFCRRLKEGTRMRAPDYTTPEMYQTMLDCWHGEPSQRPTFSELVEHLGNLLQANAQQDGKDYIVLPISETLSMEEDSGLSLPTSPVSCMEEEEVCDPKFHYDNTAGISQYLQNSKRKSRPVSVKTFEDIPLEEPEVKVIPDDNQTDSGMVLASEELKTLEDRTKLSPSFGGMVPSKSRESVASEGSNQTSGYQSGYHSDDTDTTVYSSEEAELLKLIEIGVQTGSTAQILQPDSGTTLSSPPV

Cc1cnc2[nH]cc(C(=O)c3c(F)ccc(NS(=O)(=O)CCC(F)(F)F)c3F)c2c1 [P-2328, 3,3,3-Trifluoro-propane-1-sulfonic acid [2,4-difluoro-3-(5-methyl-1H-pyrrolo[2,3-b]pyridine-3-carbonyl)-phenyl]-amide]
≤ 10 µM: all assays above

COc1cnc2[nH]cc(C(=O)c3c(F)ccc(NS(=O)(=O)c4ccccc4F)c3F)c2c1 [P-2009, N-[2,4-Difluoro-3-(5-methoxy-1H-pyrrolo[2,3-b]pyridine-3-carbonyl)-phenyl]-2-fluoro-benzenesulfonamide]
≤ 10 µM: all assays above

O=C(c1c(F)ccc(NS(=O)(=O)CC(F)(F)F)c1F)c1c[nH]c2nccc(Cl)c12 [P-2338, 2,2,2-Trifluoro-ethanesulfonic acid [3-(4-chloro-1H-pyrrolo[2,3-b]pyridine-3-carbonyl)-2,4-difluoro-phenyl]-amide]
≤ 10 µM: all assays above

O=C(c1c(F)ccc(NS(=O)(=O)N2CCCC2)c1F)c1c[nH]c2ncc(Cl)cc12 [P-2375, Pyrrolidine-1-sulfonic acid [3-(5-chloro-1H-pyrrolo[2,3-b]pyridine-3-carbonyl)-2,4-difluoro-phenyl]-amide]
≤ 10 µM: all assays above

COc1cnc2[nH]cc(C(=O)c3c(F)ccc(NS(=O)(=O)CCC(F)(F)F)c3F)c2c1 [P-2327, 3,3,3-Trifluoro-propane-1-sulfonic acid [2,4-difluoro-3-(5-methoxy-1H-pyrrolo[2,3-b]pyridine-3-carbonyl)-phenyl]-amide]
≤ 10 µM: all assays above

CCCS(=O)(=O)Nc1cccc(C(=O)c2c[nH]c3ncc(-c4cnc(N(C)C)nc4)cc23)c1F [P-2408, Propane-1-sulfonic acid {3-[5-(2-dimethylamino-pyrimidin-5-yl)-1H-pyrrolo[2,3-b]pyridine-3-carbonyl]-2-fluoro-phenyl}-amide]
not listed: [8]
≤ 10 µM: all other assays above

CCCC(C)S(=O)(=O)Nc1ccc(F)c(C(=O)c2c[nH]c3ncc(C)cc23)c1F (stereo not shown) [P-2315, Pentane-2-sulfonic acid [2,4-difluoro-3-(5-methyl-1H-pyrrolo[2,3-b]pyridine-3-carbonyl)-phenyl]-amide]
not listed: [1] | [6]
≤ 10 µM: all other assays above

O=C(c1c(F)ccc(NS(=O)(=O)C2CCCCC2)c1F)c1c[nH]c2nccc(Cl)c12 [P-2367, Cyclohexanesulfonic acid [3-(4-chloro-1H-pyrrolo[2,3-b]pyridine-3-carbonyl)-2,4-difluoro-phenyl]-amide]
not listed: [2]
≤ 10 µM: all other assays above

O=C(c1c(F)ccc(NS(=O)(=O)c2ccccn2)c1F)c1c[nH]c2nccc(Cl)c12 [P-2075, Pyridine-2-sulfonic acid [3-(4-chloro-1H-pyrrolo[2,3-b]pyridine-3-carbonyl)-2,4-difluoro-phenyl]-amide]
not listed: [8]
≤ 10 µM: all other assays above
